Among the data in US20040147561A1, “Pyrid-2-one derivatives and methods of use” (priority 2002, published 2004) are IC50 and melting point values, retold here.

Structures can show the parent of a compound that is named as a salt.

The nature of the first data set: Cell proliferation assay (BrdU incorporation). The format is cell-based. The following applies: Homo sapiens, 48 h incubation, cell line not given, read-out: inhibited proliferation IC50. Here is the method: Cell proliferation was measured using a colorimetric immunoassay (B/M Roche #164 7229), based on the measurement of pyrimidine analog BrdU incorporation during DNA synthesis in proliferating cells. Cells, e.g., human PC-3 prostate carconima cells, huFSF normal human foreskin fibroblast cells, HCT 116 human colon carcinoma cells or HT 29 human colon carcinoma cells, were cultured in a 96-well plate for 24 h, until a cell count of 3×10^3 to 6×10^3 cells per well in duplicate wells were achieved, in a well volume of 200 μL. The media was changed and 1 μL of 200× control inhibitors or compounds was added to each well. Cells are incubated for 48 h at 37° C. The cells were labeled with BrdU for 4 h at 37° C. The labeling medium was removed and in one step, the cells were fixed and the DNA was denatured (30 min at RT). Anti-BrdU-POD antibody was added to bind to the BrdU incorporated in newly synthesized cellular DNA (60-90 min at RT). The cells were washed 3× with washing buffer, substrate (100 μL) was added and the cells were incubated for 10 min at RT. The substrate reaction was stopped by adding 25 μL of 1M H2SO4. The amount of BrdU incorporated was quantified by measuring the absorbance at 450 nm using ELISA reader. IC50's were calculated using GraFit (Sigma).
In general terms: Dividing cells build labelled thymidine or BrdU into new DNA.
As for `CCOC(=O)c1cc(-c2csc(CS(=O)(=O)c3cccs3)n2)c(=O)[nH]c1C` [Example 24, Ethyl 2-methyl-6-oxo-5-{2-[(2-thienylsulfonyl)methyl](1,3-thiazol-4-yl)}-1,6-dihydro-3-pyridinecarboxylate], the IC50 is less than 1 µM. The same measure, in the same setting: for `CCOC(=O)c1cc(-c2csc(CS(=O)(=O)c3ccccc3)n2)c(=O)[nH]c1CC` [Example 3, Ethyl 2-ethyl-6-oxo-5-{2-[(phenylsulfonyl)methyl](1,3-thiazol-4-yl)}-1,6-dihydro-3-pyridinecarboxylate] the value was less than 1 µM; for `CCOC(=O)c1cc(-c2csc(CS(=O)(=O)c3ccccc3)n2)c(=O)[nH]c1C(C)C` [Example 12, Ethyl 2-isopropyl-6-oxo-5-{2-[(phenylsulfonyl)methyl](1,3-thiazol-4-yl)}-1,6-dihydro-3-pyridinecarboxylate], less than 1 µM; for `CCOC(=O)c1cc(-c2csc(CS(=O)(=O)c3cccs3)n2)c(=O)[nH]c1CC` [Example 2, Ethyl 2-ethyl-6-oxo-5-{2-[(thienylsulfonyl)methyl](1,3-thiazol-4-yl)}-1,6-dihydro-3-pyridinecarboxylate], less than 1 µM. `CCOC(=O)c1cc(-c2csc(-c3ccncc3)n2)c(=O)[nH]c1CC` [Example 1, Ethyl 2-ethyl-6-oxo-5-(2-(4-pyridinyl)-1,3-thiazol-4-yl)-1,6-dihydro-3-pyridinecarboxylate]: the IC50 is less than 1 µM. With `CCOC(=O)c1cc(-c2csc(-c3ccnc(NCCNC(C)C)c3)n2)c(=O)[nH]c1C` [Example 50, Ethyl 2-methyl-5-(2-(2-((2-((1-methylethyl)amino)ethyl)amino)-4-pyridinyl)-1,3-thiazol-4-yl)-6-oxo-1,6-dihydro-3-pyridinecarboxylate], the IC50 is less than 1 µM. Still for that read-out and setting: for `CCOC(=O)c1cc(-c2csc(-c3ccnc(NCc4cccnc4)c3)n2)c(=O)[nH]c1C` [Example 47, Ethyl 2-methyl-6-oxo-5-(2-(2-((3-pyridinylmethyl)amino)-4-pyridinyl)-1,3-thiazol-4-yl)-1,6-dihydro-3-pyridin carboxylate] the value was less than 1 µM.

Assay in another data set: not given
Settings: not given
One may read the melting point as the temperature of the solid-liquid transition. As to `CCOC(=O)c1cc(-c2csc(CS(=O)(=O)c3cccs3)n2)c(=O)[nH]c1C` [Example 24, Ethyl 2-methyl-6-oxo-5-{2-[(2-thienylsulfonyl)methyl](1,3-thiazol-4-yl)}-1,6-dihydro-3-pyridinecarboxylate], the melting point is 300 °C (dec.).

In the case of `CCOC(=O)c1cc(-c2csc(-c3ccnc(NCCNC(C)C)c3)n2)c(=O)[nH]c1C` [Example 50, Ethyl 2-methyl-5-(2-(2-((2-((1-methylethyl)amino)ethyl)amino)-4-pyridinyl)-1,3-thiazol-4-yl)-6-oxo-1,6-dihydro-3-pyridinecarboxylate], the melting point is 260 °C (dec.). For the molecule `CCOC(=O)c1cc(-c2csc(-c3ccnc(NCC(N)=O)c3)n2)c(=O)[nH]c1C` (as salt: HCl) [Example 57, Ethyl 5-{2-[2-(carbamoylmethyl-amino)-pyridin-4-yl]-thiazol-4-yl}-2-methyl-6-oxo-1,6-dihydro-3-pyridinecarboxylate], the melting point is 270 °C (dec.). As to `CCOC(=O)c1cc(-c2csc(-c3ccnc(NCc4ccc(F)cc4)c3)n2)c(=O)[nH]c1C` (as salt: HCl) [Example 55, Ethyl 5-{2-[2-(4-fluoro-benzylamino)-pyridin-4-yl]-thiazol-4-yl}-2-methyl-6-oxo-1,6-dihydro-3-pyridinecarboxylate], the melting point is 280 °C (dec.). For `CCOC(=O)c1cc(-c2csc(-c3ccnc(NCCN(CC)CC)c3)n2)c(=O)[nH]c1C` [Example 52, Ethyl 5-(2-(2-((2-(diethylamino)ethyl)amino)-4-pyridinyl)-1,3-thiazol-4-yl)-2-methyl-6-oxo-1,6-dihydro-3-pyridinecarboxylate], the melting point was 250 °C (dec.). With `CCOC(=O)c1cc(-c2csc(CS(=O)(=O)Cc3cccc(C(F)(F)F)c3)n2)c(=O)[nH]c1C` [Example 30], the melting point was 300 °C (dec.). The molecule `CCOC(=O)c1cc(-c2csc(-c3ccnc(N)c3)n2)c(=O)[nH]c1C` [Example 65, Ethyl 2-methyl-6-oxo-5-(2-(2-(amino)-4-pyridinyl)-1,3-thiazol-4-yl)-1,6-dihydro-3-pyridinecarboxylate] returned a melting point of more than 260 °C. As to `CCOC(=O)c1cc(-c2csc(-c3ccnc(NCCOc4ccccc4)c3)n2)c(=O)[nH]c1C` [Example 91, Ethyl 2-methyl-6-oxo-5-(2-(2-((2-(phenyloxy)ethyl)amino)-4-pyridinyl)-1,3-thiazol-4-yl)-1,6-dihydro-3-pyridinecarboxylate], the melting point is 270 °C (dec.).

On to `CCOC(=O)c1cc(-c2csc(-c3ccnc(NCC4CCCC4)c3)n2)c(=O)[nH]c1C` (as salt: HCl) [Example 62, Ethyl 5-{2-[2-(Cyclopentyl)methylamino-pyridin-4-yl]-thiazol-4-yl}-2-methyl-6-oxo-1,6-dihydro-3-pyridinecarboxylate], for which the melting point was 260 °C (dec.). On to `CCOC(=O)c1cc(-c2csc(CS(=O)(=O)Cc3ccco3)n2)c(=O)[nH]c1C` [Example 37, Ethyl 5-(2-{[(2-furylmethyl)sulfonyl]methyl}(1,3-thiazol-4-yl))-2-methyl-6-oxo-1,6-dihydro-3-pyridinecarboxylate], for which the melting point is 290 °C (dec.).

As to `CCOC(=O)c1cc(-c2csc(-c3ccnc(Cl)c3)n2)c(=O)[nH]c1C` [Example 40], the melting point was 250 °C (dec.). For the molecule `CCOC(=O)c1cc(-c2csc(-c3ccnc(NCc4cccnc4)c3)n2)c(=O)[nH]c1C` [Example 47, Ethyl 2-methyl-6-oxo-5-(2-(2-((3-pyridinylmethyl)amino)-4-pyridinyl)-1,3-thiazol-4-yl)-1,6-dihydro-3-pyridin carboxylate], the melting point is 280 °C (dec.). As to `CCOC(=O)c1cc(-c2csc(-c3ccc4c(c3)OCO4)n2)c(=O)[nH]c1C` [Example 32, Ethyl 5-(2-(2H-benzo[d]1,3-dioxolan-5-yl)(1,3-thiazol-4-yl))-2-m thyl-6-oxo-1,6-dihydro-3-pyridinecarboxylate], the melting point was 230 °C (dec.). On the same count and under the same terms, for `CCOC(=O)c1cc(-c2csc(-c3c(Cl)cncc3Cl)n2)c(=O)[nH]c1C` [Example 42, Ethyl 5-[2-(3,5-dichloro-pyridyl-4-yl)-thiazol-4-yl]-2-methyl-6-oxo-1,6-dihydro-3-pyridinecarboxylate] the value was 290 °C (dec.); for `CCOC(=O)c1cc(-c2csc(-c3cccnc3)n2)c(=O)[nH]c1C` [Example 39], 230 °C (dec.).
